What was measured:
TFF2 mRNA expression = test: RNA blot of TFF2 mRNA expression in mouse hepatoma cells exposed to TCDD; format: cell-based
Protocol: (§1) (A) RNA blot (30 μg total RNA) showing mRNA expression in mouse hepatoma cells of TFF2, CYP1A1 and the housekeeping gene GAPDH after exposure to increasing concentrations of TCDD. Mouse hepatoma cells were cultured in 6 cm petri dishes and exposed to TCDD dissolved in dimethyl sulfoxid (DMSO, 0.1% total volume) at concentrations indicated in the figure, or vehicle alone (“0 nM”) for 24 hours before cell harvest and RNA isolation. The band intensity of TFF2 (B) and CYP1A1 (C) was measured by Phosphor Imager analysis and normalized against expression of GAPDH. The numbers represent the fold increase of TFF2 and CYP1A1 mRNA expression compared to the corresponding vehicle-treated control.
(§2) (A) RNA blot (30 μg total RNA) showing mRNA expression in mouse hepatoma cells of TFF2, CYP1A1 and the housekeeping gene GAPDH after exposure to TCDD at increasing length of time. […] The band intensity of TFF2 (B) and CYP1A1 (C) was measured by Phosphor Imager analysis and normalized against expression of GAPDH. […]
(§3) The glandular part of mouse stomachs was removed and snap-frozen in liquid nitrogen. […] The filters were hybridized with specific 32P-labeled cDNA fragments and exposed to autoradiographic film and band intensity was quantified by Phosphoimager analysis (Fuji).

CYP1A1 mRNA expression = test: RNA blot of CYP1A1 mRNA expression in mouse hepatoma cells exposed to TCDD; format: cell-based
Protocol: as §1, §2, §3

[1] = 10 nM TCDD, increasing length of time, vs vehicle
[2] = increasing concentrations of TCDD, 24 hours, vs vehicle (DMSO)

## Clc1cc2c(cc1Cl)Oc1cc(Cl)c(Cl)cc1O2 [TCDD, 2,3,7,8-tetrachlorodibenzo-p-dioxin]
TFF2 mRNA expression; [1]
  TFF2 mRNA expression normalized against GAPDH: time-dependent increase
TFF2 mRNA expression; [2]
  TFF2 mRNA expression normalized against GAPDH: concentration-dependent increase
CYP1A1 mRNA expression; [1]
  CYP1A1 mRNA expression normalized against GAPDH: time-dependent increase
CYP1A1 mRNA expression; [2]
  CYP1A1 mRNA expression normalized against GAPDH: concentration-dependent increase

Reference: patent publication US7569352B2, “Method for identifying modulators of the dioxin/aryl hydrocarbon receptor (AHR)” (InDex Pharmaceuticals AB, priority 2003, dated 2009)
